Data on 5 molecules can be found in patent US11786494B2, “Methods of modulation of branched chain acids and uses thereof” (Baylor College of Medicine, priority 2009, dated 2023).

The target of data set [1] is branched-chain alpha-keto acid dehydrogenase kinase (BDK) (Homo sapiens, UniProt O14874). Conditions: Harris et al., 1982; cited from earlier work.
The target in data set [2] is T1, BCKDC (Homo sapiens, UniProt P12694+P21953).
T1 sequence (P12694 46-445): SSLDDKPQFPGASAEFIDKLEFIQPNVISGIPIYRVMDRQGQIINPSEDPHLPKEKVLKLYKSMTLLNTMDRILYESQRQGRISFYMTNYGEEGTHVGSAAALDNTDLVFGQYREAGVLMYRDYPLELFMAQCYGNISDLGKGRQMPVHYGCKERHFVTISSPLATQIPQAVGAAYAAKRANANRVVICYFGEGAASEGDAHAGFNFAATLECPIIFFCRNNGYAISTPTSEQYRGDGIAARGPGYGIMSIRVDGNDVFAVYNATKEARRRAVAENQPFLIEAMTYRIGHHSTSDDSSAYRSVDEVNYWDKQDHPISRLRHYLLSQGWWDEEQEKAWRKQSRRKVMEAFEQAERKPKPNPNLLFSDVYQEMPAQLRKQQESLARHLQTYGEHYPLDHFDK
T1 sequence (P21953 51-392): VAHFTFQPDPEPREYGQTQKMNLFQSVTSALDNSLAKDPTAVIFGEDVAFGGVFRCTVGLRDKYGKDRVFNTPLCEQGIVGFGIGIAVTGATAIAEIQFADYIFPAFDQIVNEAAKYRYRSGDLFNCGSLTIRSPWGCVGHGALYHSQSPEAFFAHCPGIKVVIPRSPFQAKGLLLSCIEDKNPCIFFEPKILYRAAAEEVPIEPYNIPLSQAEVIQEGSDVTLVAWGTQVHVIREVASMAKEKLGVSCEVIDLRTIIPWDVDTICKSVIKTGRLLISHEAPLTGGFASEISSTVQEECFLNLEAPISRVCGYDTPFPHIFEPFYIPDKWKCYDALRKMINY
Description: Leucine oxidation in lymphoblast cells in presence of CIC. Further details: Transformed lymphoblast cell lines were available from all 5 MSUD patients and from 2 controls to measure BCKDC activity; endogenous in cells. Conditions: both control cells, CIC 1 mM. The format is cell-based. On the procedure:
FIGS. 8A-8C. FIGS. 8A and 8B show leucine oxidation in presence of CIC in lymphoblast cells from control subjects (C-660, C-661) and MSUD patients (P-1, -2, -3, -4, -5) untreated or treated with 1 mM phenylbutyrate for 48 h. Leucine oxidation was measured by using radioactive assay as described in Materials and Methods and is expressed in pmol CO2 released/min/mg protein. CIC was added to all reactions in 1 mM concentration. Values are means±SD (n=3), * p≥0.05, **p≥0.01. […] Images are representative of two independent experiments.
Because phenylbutyrate affects E1α phosphorylation state in vivo (see FIG. 5), leucine oxidation was measured in the same cell lines as in FIG. […] with CIC in the assay. […] Changes in BCAT isoenzyme activity also impacts BCKA production, in specific cases. All patient cell lines accumulated more KIC than observed in control cell lines.

Data set [3] relates to E1α-phospho/E1α, E2, BCATm, BCATc. Description: Western blotting of BCKD complex and BCAT isozymes in lymphoblast cells. Conditions: for phosphorylation state of E1α: CIC 1 mM 2 h alone, or together with phenylbutyrate. The format is cell-based, human. (In general: Immunoblotting shows a protein as a band on a membrane.)
For data set [4] the following is noted: cited from earlier work; for time to peak concentration: metabolites after a dose of 5 g of phenylbutyrate; for mean peak concentration: metabolites after oral dosing of phenylbutyrate; for elimination half-life: oral phenylbutyrate, estimated.
Substrate in data set [5]: O=C(O)CCCc1ccccc1
Description: E1 catalyzed decarboxylase activity (DCPIP assay). In kind it is biochemical. Conditions: other: E1 catalyzed decarboxylase activity, [+] Phenylbutyrate. As for the experimental part: (§1) To determine the effect of phenylbutyrate on individual BCAA catabolic enzymes, activities of mitochondrial branched chain amino transferase (BCATm) and BCKDC enzymes were measured with and without phenylbutyrate using purified recombinant enzymes. BCATm generates the BCKA products that are elevated in MSUD and are the substrates for BCKDC. BCATm activity was measured at pH 8.0 and 298 K as described in Example 2. Kinetics of the E1 decarboxylase reaction with and without phenylbutyrate were determined in the presence of an artificial electron acceptor 2, 6-dichlorophenolindophenol (DCPIP). The assay mixture contained 100 mM potassium phosphate, pH 7.5, 2.0 mM MgCl2, 0.2 mM thiamin diphosphate (ThDP) and 0.1 mM DCPIP. The rate of decarboxylation at 30° C. was measured by monitoring the reduction of the dye at 600 nm (24, 25). For the overall BCKDC activity assay, the enzymes were exchanged into phosphate buffer (30 mM potassium phosphate, pH 7.5) containing 5 mM DTT using a PD-10 column and the enzyme concentrations were calculated from the absorption maxima at 280 nm. The protein complex was reconstituted with E1, lipoylated E2 (lip-E2) and E3 at a molar ratio of 12:1:55, in which lip-E2 exists as a 24-mer. The assay mixture contained 30 mM potassium phosphate pH 7.5, 100 mM NaCl, 3 mM NAD^+, 0.4 mM CoA, 2 mM MgCl2, 2 mM DTT, 0.1% Triton X-100, and 2 mM ThDP. The overall reaction was monitored by formation of NADH at 340 nm. The apparent rate constants (kapp) at different substrate concentrations for all of the above assays were determined from the absorption changes at the individual wavelength maximum. The kapp rate constants were fit using the following equation: kapp=kcat[S]/(Km+[S])

Substrate in data set [6]: O=C(O)CCCc1ccccc1
Description: Overall BCKDC activity assay (reconstituted E1, lip-E2, E3; NADH formation). In kind it is biochemical. Conditions: other: Activity of BCKDC, [+] Phenylbutyrate. As for the experimental part:
as §1

[7] abbreviates: substrate α-ketoisocaproate (KIC).
Where [8] appears, read: substrate α-ketoisovalerate (KIV).

As to `CC(C)CC(Cl)C(=O)O` (stereo not drawn) [CIC, Alpha-chloroisocaproate], in data set [1], the “inhibition of BDK” value is listed as “known inhibitor”. The “leucine oxidation activity in the presence of CIC vs alone” value in data set [2] is given as “higher activity”. Besides, the “phosphorylation state of E1α” value in data set [3] (both controls and patients 4 and 5) is on record as “decreases”; in data set [3] (patients 1, 2 and 3), “no effect”. Also, the “E2 or BCAT isozyme levels” value in data set [3] (lymphoblasts, CIC) is given as “did not have any effect”.
As to `NC(=O)CC[C@H](NC(=O)Cc1ccccc1)C(=O)O` [phenylacetateglutamine], in data set [4], the “time to peak concentration” value is listed as “around 3.5 h”, the mean peak concentration was 62.8 µg/mL and the elimination half-life was 2.4 h.
Consider `O=C(O)Cc1ccccc1` [phenylacetate], for which, in data set [4], the “time to peak concentration” value is “around 3.5 h”, the mean peak concentration is 45.3 µg/mL and the elimination half-life is reported as 1.3 h.

B1: E1 (unphosphorylated) of BCKDC (Homo sapiens) (protein)
chain 1: T1 sequence (P12694 46-445)
chain 2: T1 sequence (P21953 51-392)
By Km is commonly meant the substrate concentration at which the rate is half of its maximum. A word on the kcat: it is the maximal rate divided by the concentration of active sites. With B1, the Km in data set [5] (with KIC as substrate) was found to be 24.0 ± 2.0 µM; in data set [5] (with KIV as substrate), 22.0 ± 2.0 µM; in data set [5] (with KMV as substrate) it was 21.0 ± 3.0 µM. Further, the kcat in data set [5] (with KIC as substrate) stood at 0.337 ± 0.025 s⁻¹; in data set [5] (with KIV as substrate) it was 0.417 ± 0.0333 s⁻¹.

B2: BCKDC (Homo sapiens) (protein)
chain 1: T1 sequence (P12694 46-445)
chain 2: T1 sequence (P21953 51-392)
Regarding B2, the figures for the Km in data set [6] (substrate α-keto-β-methylvalerate (KMV)), in data set [6] (setting [7]) and in data set [6] (setting [8]) were 50.0 ± 3.0 µM, 41.0 ± 5.0 µM and 40.0 ± 5.0 µM, respectively. Besides, the kcat in data set [6] (setting [7]) worked out at 4.25 ± 0.167 s⁻¹; in data set [6] (setting [8]), 5.15 ± 0.25 s⁻¹.
